# Reference: ChEMBL document CHEMBL4033723, “Succinamide derivatives of melampomagnolide B and their anti-cancer activities” (2017)
# Assays:
# Type in all cases: functional
# CCRF-CEM = experiment: Growth inhibition of human CCRF-CEM cells after 48 hrs by sulforhodamine B assay
# HL-60(TB) = experiment: Growth inhibition of human HL-60(TB) cells after 48 hrs by sulforhodamine B assay; conditions: HL-60, 48 h
# K562 = experiment: Growth inhibition of human K562 cells after 48 hrs by sulforhodamine B assay; conditions: K562, 48 h
# MOLT-4 = experiment: Growth inhibition of human MOLT4 cells after 48 hrs by sulforhodamine B assay; conditions: MOLT-4, 48 h
# RPMI-8226 = experiment: Growth inhibition of human RPMI8226 cells after 48 hrs by sulforhodamine B assay; conditions: RPMI-8226, 48 h
# SR = experiment: Growth inhibition of human SR cells after 48 hrs by sulforhodamine B assay
# A549 = experiment: Growth inhibition of human A549/ATCC cells after 48 hrs by sulforhodamine B assay; conditions: A549, 48 h
# HOP-92 = experiment: Growth inhibition of human HOP92 cells after 48 hrs by sulforhodamine B assay; conditions: HOP-92, 48 h
# NCI-H226 = experiment: Growth inhibition of human NCI-H226 cells after 48 hrs by sulforhodamine B assay; conditions: NCI-H226, 48 h
# NCI-H23 = experiment: Growth inhibition of human NCI-H23 cells after 48 hrs by sulforhodamine B assay; conditions: NCI-H23, 48 h
# NCI-H322M = experiment: Growth inhibition of human NCI-H322M cells after 48 hrs by sulforhodamine B assay
# NCI-H460 = experiment: Growth inhibition of human NCI-H460 cells after 48 hrs by sulforhodamine B assay; conditions: NCI-H460, 48 h
# NCI-H522 = experiment: Growth inhibition of human NCI-H522 cells after 48 hrs by sulforhodamine B assay; conditions: NCI-H522, 48 h
# COLO 205 = experiment: Growth inhibition of human COLO205 cells after 48 hrs by sulforhodamine B assay; conditions: COLO 205, 48 h
# HCC 2998 = experiment: Growth inhibition of human HCC2998 cells after 48 hrs by sulforhodamine B assay; conditions: HCC 2998, 48 h
# HCT-116 = experiment: Growth inhibition of human HCT116 cells after 48 hrs by sulforhodamine B assay; conditions: HCT-116, 48 h
# HCT-15 = experiment: Growth inhibition of human HCT15 cells after 48 hrs by sulforhodamine B assay; conditions: HCT-15, 48 h
# HT-29 = experiment: Growth inhibition of human HT-29 cells after 48 hrs by sulforhodamine B assay; conditions: HT-29, 48 h
# KM12 = experiment: Growth inhibition of human KM12 cells after 48 hrs by sulforhodamine B assay; conditions: KM12, 48 h
# SW-620 = experiment: Growth inhibition of human SW620 cells after 48 hrs by sulforhodamine B assay; conditions: SW-620, 48 h
# SF-268 = experiment: Growth inhibition of human SF268 cells after 48 hrs by sulforhodamine B assay; conditions: SF-268, 48 h
# SF-295 = experiment: Growth inhibition of human SF295 cells after 48 hrs by sulforhodamine B assay; conditions: SF-295, 48 h
# SF-539 = experiment: Growth inhibition of human SF539 cells after 48 hrs by sulforhodamine B assay; conditions: SF-539, 48 h
# SNB-19 = experiment: Growth inhibition of human SNB19 cells after 48 hrs by sulforhodamine B assay; conditions: SNB-19, 48 h
# SNB-75 = experiment: Growth inhibition of human SNB75 cells after 48 hrs by sulforhodamine B assay; conditions: SNB-75, 48 h
# U-251 = experiment: Growth inhibition of human U251 cells after 48 hrs by sulforhodamine B assay; conditions: U-251, 48 h
# LOX IMVI = experiment: Growth inhibition of human LOXIMVI cells after 48 hrs by sulforhodamine B assay
# Malme-3M = experiment: Growth inhibition of human MALME-3M cells after 48 hrs by sulforhodamine B assay
# M14 = experiment: Growth inhibition of human M14 cells after 48 hrs by sulforhodamine B assay; conditions: M14, 48 h
# MDA-MB-435 = experiment: Growth inhibition of human MDA-MB-435 cells after 48 hrs by sulforhodamine B assay; conditions: MDA-MB-435, 48 h
# SK-MEL-2 = experiment: Growth inhibition of human SK-MEL-2 cells after 48 hrs by sulforhodamine B assay; conditions: SK-MEL-2, 48 h
# SK-MEL-28 = experiment: Growth inhibition of human SK-MEL-28 cells after 48 hrs by sulforhodamine B assay; conditions: SK-MEL-28, 48 h
# SK-MEL-5 = experiment: Growth inhibition of human SK-MEL-5 cells after 48 hrs by sulforhodamine B assay; conditions: SK-MEL-5, 48 h
# UACC-257 = experiment: Growth inhibition of human UACC257 cells after 48 hrs by sulforhodamine B assay; conditions: UACC-257, 48 h
# UACC-62 = experiment: Growth inhibition of human UACC62 cells after 48 hrs by sulforhodamine B assay; conditions: UACC-62, 48 h
# OVCAR-3 = experiment: Growth inhibition of human OVCAR3 cells after 48 hrs by sulforhodamine B assay; conditions: OVCAR-3, 48 h
# OVCAR-4 = experiment: Growth inhibition of human OVCAR4 cells after 48 hrs by sulforhodamine B assay; conditions: OVCAR-4, 48 h
# OVCAR-5 = experiment: Growth inhibition of human OVCAR5 cells after 48 hrs by sulforhodamine B assay; conditions: OVCAR-5, 48 h
# OVCAR-8 = experiment: Growth inhibition of human OVCAR8 cells after 48 hrs by sulforhodamine B assay; conditions: OVCAR-8, 48 h
# NCI/ADR-RES = experiment: Growth inhibition of human NCI-ADR-RES cells after 48 hrs by sulforhodamine B assay
# SK-OV-3 = experiment: Growth inhibition of human SKOV3 cells after 48 hrs by sulforhodamine B assay; conditions: SK-OV-3, 48 h
# 786-0 = experiment: Growth inhibition of human 786-0 cells after 48 hrs by sulforhodamine B assay; conditions: 786-0, 48 h
# A498 = experiment: Growth inhibition of human A498 cells after 48 hrs by sulforhodamine B assay; conditions: A498, 48 h
# ACHN = experiment: Growth inhibition of human ACHN cells after 48 hrs by sulforhodamine B assay
# CAKI-1 = experiment: Growth inhibition of human Caki1 cells after 48 hrs by sulforhodamine B assay; conditions: CAKI-1, 48 h
# RXF 393 = experiment: Growth inhibition of human RXF393 cells after 48 hrs by sulforhodamine B assay; conditions: RXF 393, 48 h
# SN12C = experiment: Growth inhibition of human SN12C cells after 48 hrs by sulforhodamine B assay
# TK-10 = experiment: Growth inhibition of human TK10 cells after 48 hrs by sulforhodamine B assay; conditions: TK-10, 48 h
# UO-31 = experiment: Growth inhibition of human UO31 cells after 48 hrs by sulforhodamine B assay; conditions: UO-31, 48 h
# PC-3 = experiment: Growth inhibition of human PC3 cells after 48 hrs by sulforhodamine B assay; conditions: PC-3, 48 h
# DU-145 = experiment: Growth inhibition of human DU145 cells after 48 hrs by sulforhodamine B assay; conditions: DU-145, 48 h
# MCF7 = experiment: Growth inhibition of human MCF7 cells after 48 hrs by sulforhodamine B assay; conditions: MCF7, 48 h
# MDA-MB-231 = experiment: Growth inhibition of human MDA-MB-231 cells after 48 hrs by sulforhodamine B assay; conditions: MDA-MB-231, 48 h
# Hs-578T = experiment: Growth inhibition of human Hs 578T cells after 48 hrs by sulforhodamine B assay
# BT-549 = experiment: Growth inhibition of human BT549 cells after 48 hrs by sulforhodamine B assay; conditions: BT-549, 48 h
# T47D = experiment: Growth inhibition of human T47D cells after 48 hrs by sulforhodamine B assay
# MDA-MB-468 = experiment: Growth inhibition of human MDA-MB-468 cells after 48 hrs by sulforhodamine B assay; conditions: MDA-MB-468, 48 h
# [1] = Growth inhibition of human M9-ENL1 cells after 24 hrs by trypan blue assay; conditions: M9-ENL1, 24 h
# [2] = Induction of apoptosis in human M9-ENL1 cells assessed as cell death after 24 hrs by Annexin V/PI or 7-AAD staining based flow cytometry; conditions: M9-ENL1, 24 h, read-out: LC50 (the source's name)
# [3] = Potency index, ratio of compound effect to PTL effect for cytotoxicity against human M9-ENL1 cells
smiles,measurement,setting,value
C=C1C(=O)O[C@H]2[C@H]1CC/C(COC(=O)CCC(=O)N1CCC(C)CC1)=C\CC[C@@]1(C)O[C@@H]21,GI50,CCRF-CEM,1.4 µM
same,GI50,HL-60(TB),3.16 µM
same,GI50,K562,3.06 µM
same,GI50,MOLT-4,3.33 µM
same,GI50,RPMI-8226,4.74 µM
same,GI50,SR,2.72 µM
same,GI50,A549,15.8 µM
same,GI50,HOP-92,2.05 µM
same,GI50,NCI-H226,3.51 µM
same,GI50,NCI-H23,5.24 µM
same,GI50,NCI-H322M,17.6 µM
same,GI50,NCI-H460,16 µM
same,GI50,NCI-H522,1.5 µM
same,GI50,COLO 205,2.94 µM
same,GI50,HCC 2998,11.5 µM
same,GI50,HCT-116,1.69 µM
same,GI50,HCT-15,1.7 µM
same,GI50,HT-29,4.28 µM
same,GI50,KM12,12.1 µM
same,GI50,SW-620,2.33 µM
same,GI50,SF-268,13.2 µM
same,GI50,SF-295,14.7 µM
same,GI50,SF-539,2.35 µM
same,GI50,SNB-19,14 µM
same,GI50,SNB-75,11.2 µM
same,GI50,U-251,16.7 µM
same,GI50,LOX IMVI,2.95 µM
same,GI50,Malme-3M,2.95 µM
same,GI50,M14,3.44 µM
same,GI50,MDA-MB-435,4.84 µM
same,GI50,SK-MEL-2,13.1 µM
same,GI50,SK-MEL-28,3.1 µM
same,GI50,SK-MEL-5,7.17 µM
same,GI50,UACC-257,3.57 µM
same,GI50,UACC-62,5.15 µM
same,GI50,OVCAR-3,4.32 µM
same,GI50,OVCAR-4,2.64 µM
same,GI50,OVCAR-5,6.36 µM
same,GI50,OVCAR-8,3.37 µM
same,GI50,NCI/ADR-RES,13.1 µM
same,GI50,SK-OV-3,26.8 µM
same,GI50,786-0,6.64 µM
same,GI50,A498,2.77 µM
same,GI50,ACHN,2.64 µM
same,GI50,CAKI-1,2.83 µM
same,GI50,RXF 393,1.91 µM
same,GI50,SN12C,4.8 µM
same,GI50,TK-10,3.9 µM
same,GI50,UO-31,3.56 µM
same,GI50,PC-3,13 µM
same,GI50,DU-145,4.44 µM
same,GI50,MCF7,2.22 µM
same,GI50,MDA-MB-231,7.13 µM
same,GI50,Hs-578T,20.4 µM
same,GI50,BT-549,1.82 µM
same,GI50,T47D,5.45 µM
same,GI50,MDA-MB-468,1.06 µM
same,GI50,[1],3.1 µM
same,CC50,[2],4.1 µM
same,fold change (FC),[3],2
C=C1C(=O)O[C@H]2[C@H]1CC/C(COC(=O)CCC(=O)NCCCCCCCCNC(=O)CCC(=O)OC/C1=C/CC[C@@]3(C)O[C@H]3[C@H]3OC(=O)C(=C)[C@@H]3CC1)=C\CC[C@@]1(C)O[C@@H]21,GI50,CCRF-CEM,0.32 µM
same,GI50,HL-60(TB),0.63 µM
same,GI50,K562,0.97 µM
same,GI50,MOLT-4,2.11 µM
same,GI50,RPMI-8226,1.67 µM
same,GI50,SR,0.41 µM
same,GI50,A549,18.5 µM
same,GI50,HOP-92,1.58 µM
same,GI50,NCI-H226,2.06 µM
same,GI50,NCI-H23,2.99 µM
same,GI50,NCI-H322M,16.3 µM
same,GI50,NCI-H460,5 µM
same,GI50,NCI-H522,0.48 µM
same,GI50,COLO 205,1.35 µM
same,GI50,HCC 2998,4.12 µM
same,GI50,HCT-116,1.54 µM
same,GI50,HCT-15,3.6 µM
same,GI50,HT-29,1.64 µM
same,GI50,KM12,9.46 µM
same,GI50,SW-620,1.22 µM
same,GI50,SF-268,3.34 µM
same,GI50,SF-295,15.1 µM
same,GI50,SF-539,2.43 µM
same,GI50,SNB-19,4.15 µM
same,GI50,SNB-75,2.02 µM
same,GI50,U-251,3.03 µM
same,GI50,LOX IMVI,1.37 µM
same,GI50,Malme-3M,2.04 µM
same,GI50,M14,1.79 µM
same,GI50,MDA-MB-435,1.8 µM
same,GI50,SK-MEL-2,2.25 µM
same,GI50,SK-MEL-28,1.65 µM
same,GI50,SK-MEL-5,3.13 µM
same,GI50,UACC-257,1.76 µM
same,GI50,UACC-62,1.97 µM
same,GI50,OVCAR-3,1.5 µM
same,GI50,OVCAR-4,1.64 µM
same,GI50,OVCAR-5,1.82 µM
same,GI50,OVCAR-8,2.9 µM
same,GI50,NCI/ADR-RES,33.5 µM
same,GI50,SK-OV-3,6.45 µM
same,GI50,786-0,1.62 µM
same,GI50,A498,6.72 µM
same,GI50,ACHN,3.13 µM
same,GI50,CAKI-1,12.7 µM
same,GI50,RXF 393,0.85 µM
same,GI50,SN12C,3.74 µM
same,GI50,TK-10,20.8 µM
same,GI50,UO-31,10.9 µM
same,GI50,PC-3,3.64 µM
same,GI50,DU-145,1.92 µM
same,GI50,MCF7,0.77 µM
same,GI50,MDA-MB-231,1.97 µM
same,GI50,Hs-578T,3.88 µM
same,GI50,BT-549,1.23 µM
same,GI50,T47D,1.51 µM
same,GI50,MDA-MB-468,1.33 µM
same,GI50,[1],1 µM
same,CC50,[2],11 µM
